Experimental data reported in patent US20260159520A1, “HETEROBIFUNCTIONAL COMPOUNDS AND METHODS OF TREATING DISEASE” (Halda Therapeutics OpCo, Inc., priority 2022, published 2026).

What was measured:
Format in all cases: cell-based
[1] = system: T-Rex 293 cell line SC3 cells having increased expression of androgen receptor protein; assay: Cellular growth inhibition, T-Rex 293 SC3 cells with doxycycline (increased androgen receptor expression); conditions: with 10 ng/mL doxycycline (increased androgen receptor), 72 hours, CellTiter-Glo 2.0
Outline: (§1)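 Doxycycline (10 ng/mL) was either included or omitted to toggle wild-type androgen receptor expression in SC3 cells, a T-Rex 293 clone, grown in stripped-serum, phenol red-free medium. After 72 hours with compound, viable cells were quantified by CellTiter-Glo 2.0.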

[2] = system: T-Rex 293 cell line SC3 cells lacking increased expression of androgen receptor protein; assay: Cellular growth inhibition, T-Rex 293 SC3 cells without doxycycline; conditions: not exposed to doxycycline, 72 hours, CellTiter-Glo 2.0
Outline: as §1

T47D cells = assay: Cellular growth inhibition assay for T47D cells; conditions: Homo sapiens, 72 hours, CellTiter-Glo 2.0
Outline: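 Cells are plated at 3000/well and allowed 24 h before treatment. Test compound in medium containing 0.5% DMSO is then added, with DMSO-only wells as negative control, and plates are incubated 72 h at 37 °C. ATP luminescence (CellTiter-Glo 2.0) is then fitted to four parameters to derive GI50.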

VCaP cells = assay: Cellular growth inhibition assay for VCaP cells; conditions: Homo sapiens, 72 hours, CellTiter-Glo 2.0

SMILES	GI50 [1] [nM]	GI50 [2] [nM]	GI50 (T47D cells) [nM]	GI50 (VCaP cells) [nM]
CCc1cnn2c(NCc3ccc(OCCN(C)c4ncc(C(=O)N[C@H]5C(C)(C)[C@H](Oc6ccc(C#N)c(Cl)c6)C5(C)C)cn4)nc3)cc(N3CCCC[C@H]3CCO)nc12 [Compound I-1]	100 to 1000	100 to 1000	500 to 1500	–
CCc1cnn2c(NCc3ccc(OCCOCCOCCOCCOCCN(C)c4ncc(C(=O)N[C@H]5C(C)(C)[C@H](Oc6ccc(C#N)c(Cl)c6)C5(C)C)cn4)nc3)cc(N3CCCC[C@H]3CCO)nc12 [Compound I-3]	< 100	100 to 1000	–	< 100
CCc1cnn2c(NCc3ccc(=O)n(CCOCCOCCOCCOCCOCCOCCN(C)c4ncc(C(=O)N[C@H]5C(C)(C)[C@H](Oc6ccc(C#N)c(Cl)c6)C5(C)C)cn4)c3)cc(N3CCCC[C@H]3CCO)nc12 [Compound I-4, N-((1r,3r)-3-(3-chloro-4-cyanophenoxy)-2,2,4,4-tetramethylcyclobutyl)-2-((20-(5-(((3-ethyl-5-((S)-2-(2-hydroxyethyl)piperidin-1-yl)pyrazolo[1,5-a]pyrimidin-7-yl)amino)methyl)-2-oxopyridin-1(2H)-yl)-3,6,9,12,15,18-hexaoxaicosyl)(methyl)amino)pyrimidine-5-carboxamide]	100 to 1000	100 to 1000	–	–
CCc1cnn2c(NCc3ccc(OCCOCCOCCOCCOCCOCCOCCN(C)c4ncc(C(=O)N[C@H]5C(C)(C)[C@H](Oc6ccc(C#N)c(Cl)c6)C5(C)C)cn4)nc3)cc(N3CCCC[C@H]3CCO)nc12 [Compound I-5]	100 to 1000	1000 to 3500	–	–
CCc1cnn2c(NCc3ccc(OCCOC4CCN(c5ncc(C(=O)N[C@H]6C(C)(C)[C@H](Oc7ccc(C#N)c(Cl)c7)C6(C)C)cn5)CC4)nc3)cc(N3CCCC[C@H]3CCO)nc12 [Compound I-7, N-((1r,3r)-3-(3-chloro-4-cyanophenoxy)-2,2,4,4-tetramethylcyclobutyl)-2-(4-(2-((5-(((3-ethyl-5-((S)-2-(2-hydroxyethyl)piperidin-1-yl)pyrazolo[1,5-a]pyrimidin-7-yl)amino)methyl)pyridin-2-yl)oxy)ethoxy)piperidin-1-yl)pyrimidine-5-carboxamide]	> 3500	> 3500	> 3000	1000 to 3500
CCc1cnn2c(NCc3ccc(OCCOCCOCCOC4CCN(c5ncc(C(=O)N[C@H]6C(C)(C)[C@H](Oc7ccc(C#N)c(Cl)c7)C6(C)C)cn5)CC4)nc3)cc(N3CCCC[C@H]3CCO)nc12 [Compound I-8]	< 100	100 to 1000	< 500	< 100
CCc1cnn2c(NCc3ccc(OCCOCCOCCOCCOCCOC4CCN(c5ncc(C(=O)N[C@H]6C(C)(C)[C@H](Oc7ccc(C#N)c(Cl)c7)C6(C)C)cn5)CC4)nc3)cc(N3CCCC[C@H]3CCO)nc12 [Compound I-9]	< 100	100 to 1000	–	< 100
CC1(C)[C@H](NC(=O)c2cnc(N3CCC(OCCNS(=O)(=O)c4ccc(Nc5ncc(Br)c(Nc6cccc(F)c6C(N)=O)n5)cc4)CC3)nc2)C(C)(C)[C@H]1Oc1ccc(C#N)c(Cl)c1 [Compound I-13, 2-(4-(2-((4-((5-bromo-4-((2-carbamoyl-3-fluorophenyl)amino)pyrimidin-2-yl)amino)phenyl)sulfonamido)ethoxy)piperidin-1-yl)-N-((1 r,3r)-3-(3-chloro-4-cyanophenoxy)-2,2,4,4-tetramethylcyclobutyl)pyrimidine-5-carboxamide]	> 3500	> 3500	< 500	–
CCc1cnn2c(NCc3ccc(OCCCCOCCOC4CCN(c5ncc(C(=O)N[C@H]6C(C)(C)[C@H](Oc7ccc(C#N)c(Cl)c7)C6(C)C)cn5)CC4)nc3)cc(N3CCCC[C@H]3CCO)nc12 [Compound I-34]	< 100	> 3500	–	< 100
CCc1cnn2c(NCc3ccc(OCCN4CCN(CC5CCN(c6ncc(C(=O)N[C@H]7C(C)(C)[C@H](Oc8ccc(C#N)c(Cl)c8)C7(C)C)cn6)CC5)CC4)nc3)cc(N3CCCC[C@H]3CCO)nc12 [Compound I-41]	< 100	100 to 1000	< 500	< 100
CCc1cnn2c(NCc3ccc(COCCN4CCN(CC5CCN(c6ncc(C(=O)N[C@H]7C(C)(C)[C@H](Oc8ccc(C#N)c(Cl)c8)C7(C)C)cn6)CC5)CC4)nc3)cc(N3CCCC[C@H]3CCO)nc12 [Compound I-42]	< 100	100 to 1000	< 500	< 100
CCc1cnn2c(NCc3ccc(OCCCCN4CCN(CC5CCN(c6ncc(C(=O)N[C@H]7C(C)(C)[C@H](Oc8ccc(C#N)c(Cl)c8)C7(C)C)cn6)CC5)CC4)nc3)cc(N3CCCC[C@H]3CCO)nc12 [Compound I-43]	< 100	100 to 1000	< 500	< 100
CCc1cnn2c(NCc3ccc(OCCOCCOCCOC4CCN(c5ccc(C(=O)N[C@H]6C(C)(C)[C@H](Oc7ccc(C#N)c(Cl)c7)C6(C)C)nn5)CC4)nc3)cc(N3CCCC[C@H]3CCO)nc12 [Compound I-44, N-((1r,3r)-3-(3-chloro-4-cyanophenoxy)-2,2,4,4-tetramethylcyclobutyl)-6-(4-(2-(2-(2-((5-(((3-ethyl-5-((S)-2-(2-hydroxyethyl)piperidin-1-yl)pyrazolo[1,5-a]pyrimidin-7-yl)amino)methyl)pyridin-2-yl)oxy)ethoxy)ethoxy)ethoxy)piperidin-1-yl)pyridazine-3-carboxamide]	100 to 1000	100 to 1000	< 500	–
CCc1cnn2c(NCc3ccc(OCCOCC4CCN(CC5CCN(c6ncc(C(=O)N[C@H]7C(C)(C)[C@H](Oc8ccc(C#N)c(Cl)c8)C7(C)C)cn6)CC5)CC4)nc3)cc(N3CCCC[C@H]3CCO)nc12 [Compound I-45]	< 100	100 to 1000	–	< 100
CCc1cnn2c(NCc3ccc(OC4CCN(CC5CCN(c6ncc(C(=O)N[C@H]7C(C)(C)[C@H](Oc8ccc(C#N)c(Cl)c8)C7(C)C)cn6)CC5)CC4)nc3)cc(N3CCCC[C@H]3CCO)nc12 [Compound I-46]	< 100	100 to 1000	< 500	100 to 1000
CCc1cnn2c(NCc3ccc(OCCN4CCN(CC5CCN(c6ncc(C(=O)N[C@H]7C(C)(C)[C@H](Oc8ccc(C#N)c(Cl)c8)C7(C)C)cn6)CC5)CC4)nc3)cc(-c3ccccc3)nc12 [Compound I-47, N-((1r,3r)-3-(3-chloro-4-cyanophenoxy)-2,2,4,4-tetramethylcyclobutyl)-2-(4-((4-(2-((5-(((3-ethyl-5-phenylpyrazolo[1,5-a]pyrimidin-7-yl)amino)methyl)pyridin-2-yl)oxy)ethyl)piperazin-1-yl)methyl)piperidin-1-yl)pyrimidine-5-carboxamide]	100 to 1000	> 3500	> 3000	> 3500
CCc1cnn2c(NCc3ccc(OCC4CCN(CC5CCN(c6ncc(C(=O)N[C@H]7C(C)(C)[C@H](Oc8ccc(C#N)c(Cl)c8)C7(C)C)cn6)CC5)CC4)nc3)cc(N3CCCC[C@H]3CCO)nc12 [Compound I-51]	< 100	100 to 1000	< 500	< 100
CCc1cnn2c(NCc3ccc(OCCCN4CCN(CC5CCN(c6ccc(C(=O)N[C@H]7C(C)(C)[C@H](Oc8ccc(C#N)c(Cl)c8)C7(C)C)cn6)CC5)CC4)nc3)cc(N3CCCC[C@@H]3CCO)nc12 [Compound I-55, N-((1r,3r)-3-(3-chloro-4-cyanophenoxy)-2,2,4,4-tetramethylcyclobutyl)-6-(4-((4-(3-((5-(((3-ethyl-5-((R)-2-(2-hydroxyethyl)piperidin-1-yl)pyrazolo[1,5-a]pyrimidin-7-yl)amino)methyl)pyridin-2-yl)oxy)propyl)piperazin-1-yl)methyl)piperidin-1-yl)nicotinamide]	< 100	100 to 1000	< 500	< 100
CCc1cnn2c(NCc3ccc(OCCCN4CCN(C5CN(c6ncc(C(=O)N[C@H]7C(C)(C)[C@H](Oc8ccc(C#N)c(Cl)c8)C7(C)C)cn6)C5)CC4)nc3)cc(N3CCCC[C@H]3CCO)nc12 [Compound I-60]	< 100	< 100	< 500	< 100
CCc1cnn2c(NCc3ccc(OCCCN4CCC(C5CN(c6ncc(C(=O)N[C@H]7C(C)(C)[C@H](Oc8ccc(C#N)c(Cl)c8)C7(C)C)cn6)C5)CC4)nc3)cc(N3CCCC[C@H]3CCO)nc12 [Compound I-61]	< 100	100 to 1000	< 500	< 100
CCc1cnn2c(NCc3ccc(N4CCC(CN5CCC6CN(c7ncc(C(=O)N[C@H]8C(C)(C)[C@H](Oc9ccc(C#N)c(Cl)c9)C8(C)C)cn7)CCC6C5)CC4)nc3)cc(N3CCCC[C@H]3CCO)nc12 (stereo partly drawn) [Compound I-71]	< 100	> 3500	1500 to 3000	1000 to 3500
CCc1cnn2c(NCc3ccc(N4CC(OCCN5CC6CN(c7ncc(C(=O)N[C@H]8C(C)(C)[C@H](Oc9ccc(C#N)c(Cl)c9)C8(C)C)cn7)CC6C5)C4)nc3)cc(N3CCCC[C@H]3CCO)nc12 (stereo partly drawn) [Compound I-72]	100 to 1000	100 to 1000	1500 to 3000	100 to 1000
CC(C)n1cc(-c2ccnc3[nH]c(C4CCN(CCN5CCN(CC6CCN(c7ncc(C(=O)NC8C(C)(C)C(Oc9ccc(C#N)c(Cl)c9)C8(C)C)cn7)CC6)CC5)CC4)cc23)ccc1=O (stereo not drawn) [Compound I-74, N-[3-(3-chloro-4-cyano-phenoxy)-2,2,4,4-tetramethyl-cyclobutyl]-2-[4-[[4-[2-[4-[4-(1-isopropyl-6-oxo-3-pyridyl)-1H-pyrrolo [2,3-b]pyridin-2-yl]-1-piperidyl]ethyl]piperazin-1-yl]methyl]-1-piperidyl]pyrimidine-5-carboxamide]	< 100	100 to 1000	< 500	< 100
